Key:
Assay type in all cases: toxicity, cell-based
HEK-293T = experiment: Incucyte cell viability with HEK293T; conditions: human, 10 µM, compound concentration 10 uM
U2OS = experiment: Incucyte cell viability with U2OS; conditions: human, 10 µM, compound concentration 10 uM
Fibroblast = experiment: Incucyte cell viability with human fibroblast; conditions: 10 µM, compound concentration 10 uM
[1] = 0 h, replicate number 1, timepoint 0 hours
[2] = 6 h, replicate number 1, timepoint 6 hours
[3] = 12 h, replicate number 1, timepoint 12 hours
[4] = 18 h, replicate number 1, timepoint 18 hours
[5] = 24 h, replicate number 1, timepoint 24 hours
[6] = 24 h, replicate number 2, timepoint 24 hours
[7] = 6 h, replicate number 2, timepoint 6 hours
[8] = 12 h, replicate number 2, timepoint 12 hours
[9] = 0 h, replicate number 2, timepoint 0 hours
[10] = 18 h, replicate number 2, timepoint 18 hours
Also: filed as whole numbers so only -1 and 0 and 1 occur.

Compound	Growth Rate (HEK-293T; [1])	Growth Rate (HEK-293T; [2])	Growth Rate (HEK-293T; [3])	Growth Rate (HEK-293T; [4])	Growth Rate (HEK-293T; [5])	Growth Rate (U2OS; [1])	Growth Rate (U2OS; [2])	Growth Rate (U2OS; [3])	Growth Rate (U2OS; [4])	Growth Rate (U2OS; [5])	Growth Rate (U2OS; [6])	Growth Rate (Fibroblast; [1])	Growth Rate (Fibroblast; [2])	Growth Rate (Fibroblast; [8])	Growth Rate (Fibroblast; [4])	Growth Rate (Fibroblast; [5])	Growth Rate (HEK-293T; [9])	Growth Rate (U2OS; [7])	Growth Rate (Fibroblast; [3])	Growth Rate (Fibroblast; [6])	other results
NS(=O)(=O)c1cc(NC(=O)C2(c3ccccc3Cl)CC2)ccc1Oc1cccc(Cl)c1 [BAY-207]	0	0	0	0	0	0	0	0	0	1	0	0	1	1	1	1	–	–	–	–	Growth Rate (Fibroblast; [7]): 0
CC1=C(C#N)C(c2ccc3c(c2)c(NC(=O)c2ccccc2C)nn3C)C(C#N)=C(C)N1 [BAY-974]	0	–	–	–	–	–	1	1	1	1	–	–	1	–	1	1	1	0	1	–	Growth Rate (HEK-293T; [6]): 1; Growth Rate (U2OS; [9]): 0; Growth Rate (U2OS; [8]): 0; Growth Rate (Fibroblast; [9]): 0
C[C@H](c1ccnc(Nc2nc3ccc(-c4cc(N(C)C)ncn4)cc3[nH]2)c1)N1CCN(C(=O)CC(F)(F)F)CC1 [BAY-985]	0	–	–	–	–	0	1	1	0	1	–	1	1	–	1	1	1	–	1	–	Growth Rate (HEK-293T; [6]): 1; Growth Rate (U2OS; [10]): 1
CC(=O)N1CCC(c2ccc(C(=O)NC3=NCCN3)cc2C(F)(F)F)CC1 [BI 0054]	1	1	0	1	1	0	–	1	1	1	–	0	1	–	1	1	0	–	1	–	Growth Rate (HEK-293T; [7]): 0; Growth Rate (HEK-293T; [10]): 0; Growth Rate (HEK-293T; [6]): 0; Growth Rate (Fibroblast; [7]): 0
CN(C)C(=O)Cn1cc(-c2nc(C3(c4ccc(-c5cnc(N)nc5)cc4)CC3)no2)cn1 [BI 0153]	–	0	0	0	0	0	0	0	0	0	1	1	0	1	0	0	1	–	0	1	Growth Rate (HEK-293T; [7]): 1; Growth Rate (HEK-293T; [8]): 1; Growth Rate (HEK-293T; [6]): 1; Growth Rate (Fibroblast; [9]): 0
CCC(=O)N[C@H]1CC[C@@H](C(=O)N(C)c2ccc(-c3nc4ccccc4o3)cc2)C1 [BI 99179]	–	0	0	0	0	0	0	1	1	1	0	0	1	–	0	0	1	1	1	1	Growth Rate (U2OS; [10]): 0; Growth Rate (Fibroblast; [9]): 1
CCC(=O)N[C@@H]1CC[C@H](C(=O)N(C)c2ccc(-c3nc4ccccc4o3)cc2)C1 [BI 99990]	0	0	0	0	0	0	0	0	0	0	–	0	0	–	0	1	1	1	0	0	Growth Rate (U2OS; [8]): 1
CS(=O)(=O)c1cc(C2(NC(=O)c3cncc4c3cnn4-c3ccc(F)cc3)CC2)ccn1 [BI 639667]	0	1	1	1	1	0	–	1	0	1	–	0	1	0	0	0	–	1	1	–	Growth Rate (HEK-293T; [7]): 0; Growth Rate (HEK-293T; [8]): 0; Growth Rate (U2OS; [9]): 1; Growth Rate (U2OS; [8]): 0; Growth Rate (U2OS; [10]): 1; Growth Rate (Fibroblast; [7]): 0
CC(C)NCC(O)c1ccc(N)c(C#N)c1 (stereo not given) [CIMATEROL]	0	0	0	0	0	0	1	1	0	1	0	0	–	1	–	–	–	–	–	1	Growth Rate (HEK-293T; [7]): 1; Growth Rate (HEK-293T; [8]): 1; Growth Rate (HEK-293T; [10]): 1; Growth Rate (U2OS; [10]): 1; Growth Rate (Fibroblast; [10]): 0
O=C(c1ccc(F)c(F)c1Nc1ccc(I)cc1F)N1CC(O)([C@@H]2CCCCN2)C1 [COBIMETINIB]	–	0	–	–	1	0	0	0	0	0	–	–	–	–	–	1	–	1	–	–	Growth Rate (HEK-293T; [8]): 0; Growth Rate (HEK-293T; [10]): 1; Growth Rate (HEK-293T; [6]): 0
CN(C)CC[C@@H](c1ccc(Cl)cc1)c1ccccn1.O=C(O)/C=C\C(=O)O [DEXCHLORPHENIRAMINE MALEATE]	0	1	1	1	1	0	–	1	0	1	0	0	1	–	1	1	–	0	1	0	Growth Rate (HEK-293T; [7]): 0; Growth Rate (U2OS; [8]): 0; Growth Rate (Fibroblast; [10]): 0
CCCCC[C@H](O)/C=C/[C@@H]1[C@@H](C/C=C\CCCC(=O)O)[C@@H](O)C[C@H]1O [DINOPROST]	1	0	0	0	0	0	–	1	1	1	–	0	–	0	–	–	0	0	–	1	Growth Rate (Fibroblast; [7]): 1; Growth Rate (Fibroblast; [10]): 1
CCC1(C2=NCCN2)Cc2ccccc2O1 (stereo not given) [EFAROXAN]	1	1	1	1	1	0	–	0	0	1	–	0	0	–	0	0	0	1	0	–	Growth Rate (U2OS; [9]): 1; Growth Rate (U2OS; [8]): 1; Growth Rate (Fibroblast; [9]): 1
CNc1cc2[nH]c(=O)n(-c3ccc(NC(=O)NS(=O)(=O)c4ccc(Cl)s4)cc3)c(=O)c2cc1F [ELINOGREL]	1	0	0	0	0	1	0	0	0	0	1	0	–	0	1	1	0	–	1	0	Growth Rate (HEK-293T; [8]): 1; Growth Rate (HEK-293T; [10]): 1; Growth Rate (HEK-293T; [6]): 1; Growth Rate (U2OS; [8]): 1; Growth Rate (U2OS; [10]): 1; Growth Rate (Fibroblast; [9]): 1; Growth Rate (Fibroblast; [7]): 0; Growth Rate (Fibroblast; [10]): 0

From ChEMBL document CHEMBL4689842, “EUbOPEN Chemogenomics Library wave 1” (2021)
